One data set deals with DNA. Conditions: for Fluorescent Intensity: 7.5 μg DNA, 7.5 μl ethidium bromide buffer. The protocol: A stock solution of 1.26 μM ethidium bromide containing 2 mM HEPES, 8 mM sodium chloride and 0.05 mM EDTA (pH=7) was prepared.
The next data set concerns B16 melanoma. Conditions: 40 mg/kg intraperitoneal, samples up to 72 hours after injection, compared with TCA-insoluble fraction.
For data set [1], the system named is KHJJ murine mammary carcinoma tumors. Briefly: Auger electron therapy: tumor volume after 103Pd brachytherapy seed implantation with or without PtTMPyP(4). Conditions: for Tumor volume, mm^3 ± standard error, Auger Electron Therapy: 103 Pd seeds in combination with PtTMPyP(4): with 103Pd seeds. The data set is classed as in vivo, BALB/C mice. The procedure:
General description. On day 0, after measurements of the length, width and height of the tumors, palladium-103 brachytherapy seeds were implanted into 12 KHJJ murine mammary carcinoma tumors borne on the thighs of 12 BALB/C mice. Twenty-four hours after seed implantation, 40 mg/kg, platinum (II)-tetrakis(N-methyl-4-pyridyl) porphyrin [PtTMPyP(4)], in the form of its chloride salt, was administered i.p. as a single bolus injection of 200 μl to the six mice undergoing AET. Tumor volume measurements were obtained two to three times weekly. Drug was also administered on days 5 (30 mg/kg), and 19 (20 mg/kg) following seed implantation.
Tumor. Prior to the experiment, tumors were excised from the donor mouse in a sterile environment, and fragmented into 1-2 mm sections in a Petri dish. After anesthetizing each mouse with ketamine/xylazine (10:1), a small slit was prepared through the skin on the thigh, ˜5 mm above and lateral to the distal femur of the right knee. To assure subcutaneous implantation of the tumor fragment, a magnifying glass with a fluorescent light was used to observe the sheen on the fascia surrounding the three sides of the ‘pocket’ produced by the slit. An 18 gauge trochar, into whose bevel a tumor fragment had been inserted, was positioned into the ‘pocket’. A stylette was used to push the fragment into the ‘pocket’. Tumors were implanted either 12 or 15 days prior to the experiment. Upon verification of tumor growth, those tumors of adequate size to accommodate the seed implant, were randomized into treatment groups (AET or radiation only) using a coin flip.
Measurements of tumor volume. Using a digital caliper, the length, width, and height of the tumors were measured. Being ellipsoid in their growth pattern, tumor volume was determined according to the formula, […].
Seed implantation. On day 0, after weighing the mice and measuring the length, width and height of the tumors, palladium-103 brachytherapy seeds (˜2.2 mCi in activity; Theragenics) were implanted into the thigh tumors as follows. The anesthetized mouse was positioned on a board whose angle was ˜45°. The tumor bearing leg was inserted through an elastic band, secured through the board. The foot was taped to the board. An 18 gauge trochar with a funnel head that was supported by a brace on a ring stand, was inserted into the center to the tumor. The seed, previously sterilized by dipping in ETOH, rinsing in a sterile PBS solution, and air-dried, was placed in the funnel of the trochar using long-nosed forceps. A stylette was used to insert the seed into the tumor, after which the trochar was withdrawn from the tumor and Neosporin was applied to the wound.
Drug delivery. The day after seed implantation (day 1), 40 mg/kg of PtTMPyP(4), in the form of its chloride salt, was administered intraperitoneally to the mice in the AET treatment group. On day 5, […] of PtTMPyP(4) was injected i.p., and on day 19, a dosage of 20 mg/kg was injected i.p.

Two compounds from patent US20050112058A1, “Auger effect-based cancer therapy method” (Ben-Gurion University of the Negev, priority 2002, published 2005) can be followed below.

Like-named read-outs stand apart in the source and are kept apart here.

Procedure for B16 melanoma: Tissue samples were taken up to 72 hours after the injection. The samples were treated with trichloroacetic acid (TCA), such that the TCA-insoluble fraction contained the DNA and high molecular weight proteins, and the TCA-soluble fraction contained the cytoplasmic and membrane components of the cells. Inductively-coupled plasma mass spectrometry (ICP-MS) was used to measure the concentration of indium ions in the TCA-insoluble and TCA-soluble fractions.

`C[n+]1ccc(-c2c3nc(c(-c4cc[n+](C)cc4)c4ccc([n-]4)c(-c4cc[n+](C)cc4)c4nc(c(-c5cc[n+](C)cc5)c5ccc2[n-]5)C=C4)C=C3)cc1.[In+3]` [In^3+-tetra(N-methyl-4-pyridyl)-porphyrin]: the “Fluorescent Intensity” value is given as 85% with DNA (0.25 μg complex); 73% in the data set on DNA (0.50 μg complex); 63% in the data set with DNA (0.75 μg complex); 54% with DNA (1.00 μg complex); 47% in the data set with DNA (1.25 μg complex); 41% with DNA (1.50 μg complex). The “Fluorescent Intensity” value is reported as 35% in the data set on DNA (1.75 μg complex); 30% with DNA (2.00 μg complex); 26% in the data set with DNA (2.25 μg complex); 22% in the data set with DNA (2.50 μg complex); 19% in the data set on DNA (2.75 μg complex); 16% in the data set on DNA (3.00 μg complex). Besides, the “Fluorescent Intensity” value in the data set with DNA (3.25 μg complex) is 13.4%; in the data set with DNA (3.50 μg complex), 12%; in the data set with DNA (3.75 μg complex), 10%; in the data set with DNA (4.00 μg complex), 9%. In addition, the “binding to DNA by displacement of ethidium bromide (in words)” value in the data set with DNA (fluorescence decreases with increasing complex concentration, FIG. 2) was “displaces the ethidium bromide and becomes bound to the DNA”. For the same compound, the “number of indium ions per cell in the TCA-soluble fraction (cytoplasmic and membrane components)” value in the data set on B16 melanoma is “lesser amount”.

As for `CN1C=CC(c2c3nc(c(C4=CCN(C)C=C4)c4ccc([nH]4)c(C4=CCN(C)C=C4)c4nc(c(C5=CCN(C)C=C5)c5ccc2[nH]5)C=C4)C=C3)=CC1.[Pt+2]` [PtTMPyP(4), platinum (II)-tetrakis(N-methyl-4-pyridyl) porphyrin], the “effect on tumor growth compared with radiation alone or no treatment (in words)” value in data set [1] (AET group, FIG. 4, mean tumor volume) is reported as “significant delay in tumor control”. In addition, the “Tumor volume, mm^3 ± standard error, Auger Electron Therapy: 103 Pd seeds in combination with PtTMPyP(4)” value was 117.5 ± 18.6 mm^3 in data set [1] (day 0 post seed implantation (before first drug dose)); 112.8 ± 15.3 mm^3 in data set [1] (day 3 post seed implantation, i.p. 40 mg/kg day 1, 30 day 5, 20 day 19); 110.6 ± 25.7 mm^3 in data set [1] (day 5 post seed implantation, i.p. 40 mg/kg day 1, 30 day 5, 20 day 19); 121.5 ± 29.4 mm^3 in data set [1] (day 7 post seed implantation, i.p. 40 mg/kg day 1, 30 day 5, 20 day 19); 123.1 ± 26.9 mm^3 in data set [1] (day 9 post seed implantation, i.p. 40 mg/kg day 1, 30 day 5, 20 day 19); 150.7 ± 31.5 mm^3 in data set [1] (day 12 post seed implantation, i.p. 40 mg/kg day 1, 30 day 5, 20 day 19). The “Tumor volume, mm^3 ± standard error, Auger Electron Therapy: 103 Pd seeds in combination with PtTMPyP(4)” value in data set [1] (day 15 post seed implantation, i.p. 40 mg/kg day 1, 30 day 5, 20 day 19) is on record as 116.5 ± 44.9 mm^3; in data set [1] (day 19 post seed implantation, i.p. 40 mg/kg day 1, 30 day 5, 20 day 19), 175.6 ± 69.2 mm^3; in data set [1] (day 21 post seed implantation, i.p. 40 mg/kg day 1, 30 day 5, 20 day 19) it was 200.1 ± 81.9 mm^3; in data set [1] (day 23 post seed implantation, i.p. 40 mg/kg day 1, 30 day 5, 20 day 19) it was 232.6 ± 91.2 mm^3; in data set [1] (day 27 post seed implantation, i.p. 40 mg/kg day 1, 30 day 5, 20 day 19), 280.2 ± 90.6 mm^3; in data set [1] (day 32 post seed implantation, i.p. 40 mg/kg day 1, 30 day 5, 20 day 19, 40 mg/kg), 356.2 ± 133.9 mm^3. Besides, the “factor between mean tumor volume with seeds only and with seeds plus drug” value in data set [1] (day 32, 103Pd seeds alone versus 103Pd seeds plus PtTMPyP(4)) was determined as 5.
